Source: patent US20230364057A1, “BACTERIAL DNA GYRASE INHIBITORS AND METHODS OF USE THEREOF” (THE FLORIDA INTERNATIONAL UNIVERSITY BOARD OF TRUSTEES, priority 2022, published 2023)
≈ marks a conversion by molar mass, not a printed value. Where “and” joins values, the source holds several entries; their conditions need not be identical. Equal entries are not always repeated. Entries after “also recorded” stand apart in the source; their conditions may differ. Where two headings read alike, the source gives them in different places.

Key:
Mtb DNA gyrase = Mtb DNA gyrase (Mycobacterium tuberculosis (strain ATCC 25618 / H37Rv), UniProt P9WG45+P9WG47); test: Mtb DNA gyrase inhibition assay (gel-based); assay type: biochemical; conditions: for IC50: Table 10, read-out: IC50 (µM) Mtb gyrase
Protocol: The IC50 against E. coli (A) and Mtb (C) gyrase were determined using the gel-based gyrase inhibition assays. The gyrase mediated DNA cleavage assays (B and D) were performed using pBR322. (A) 229 inhibits E. coli gyrase. Lane 1, rx pAB1. […] Lane 1, rx pAB1. […] 100 µM of CPDs were used. Symbols rx, nk, In, and sc represent relaxed, nicked, linear, and supercoiled DNA, respectively.
Agarose gel-based DNA gyrase inhibition assays were performed in 30 µL of 1 ×gyrase buffer (35 mM Tris-HCl, 24 mM KCl, 4 mM MgCl2, 2 mM DTT, 1.75 mM ATP, 0.1 mg/mL BSA, 6.5% glycerol, pH7.5) containing 400 ng of rx pAB1 at 37° C. 100 ng of DNA gyrase was used to supercoil the rx pAB1 in the presence of different concentrations of a gyrase inhibitor. After 15 minutes of incubation with the inhibitor at 37° C., all reactions were stopped with 1 µL of stop solution (3% SDS and 250 mM EDTA). Samples were analyzed by electrophoresis in 1% w/v agarose gels followed by ethidium bromide staining and photographed under UV light.

Mtb = Mtb whole cell assay (% inhibition, MIC); assay type: cell-based, Mycobacterium tuberculosis; conditions: Mycobacterium tuberculosis
M. abscessus = test: MIC against M. abscessus; assay type: cell-based, Mycobacterium abscessus; conditions: Mycobacteroides abscessus
in vitro = conditions: human
E. coli (ATCC 25922) = test: Minimum inhibitory concentration, broth microdilution; conditions: Escherichia coli
S. aureus (ATCC 14775) = test: as above; conditions: Staphylococcus aureus
E. coli imp = test: microbe, parasite or virus in culture; conditions: Escherichia coli, read-out: MIC E. coli imp BAS3023
Protocol: (§2) Antibacterial minimum inhibitory concentrations (MICs) were obtained from three independent experiments using broth microdilution methods in 96-well plates according to Clinical and Laboratory Standards Institute guidelines. Cells were culture from singles colonies in MHIIB medium for 24 h at 37° C. in agitation (200 RPM). The cultures were then diluted using the same media to reach an OD600 of 0.1. Then, 50 µL of the diluted cultures were added to the plates holding 50 µL of serially diluted compounds in MHIIB. The plates were incubated at 37° C. for 20 h. The starting inoculum was fixated to 10^5 colony-forming units per ml.

MRSA = test: Minimum inhibitory concentration, broth microdilution; conditions: Staphylococcus aureus
Protocol: as §2

B. subtilis (ATCC 6633) = test: as above; conditions: Bacillus subtilis, ATCC6633, read-out: MIC B. subtilis ATCC 6633
Protocol: as §2

E. coli DNA gyrase [1] = biological target: T1, E. coli DNA gyrase (Escherichia coli (strain K12), UniProt P0AES4+P0AES6); test: Agarose gel-based DNA gyrase inhibition assay; assay type: biochemical; conditions: Table 8; read-out: IC50 Gyrase Gel-based
Protocol: 100 ng of DNA gyrase was used to supercoil the rx pAB1 in the presence of different concentrations of a gyrase inhibitor. […] Samples were analyzed by electrophoresis in 1% w/v agarose gels followed by ethidium bromide staining and photographed under UV light.

E. coli DNA gyrase [2] = biological target: T1, E. coli DNA gyrase; test: SDFQ-based DNA gyrase inhibition assay; assay type: biochemical; conditions: Table 8; read-out: IC50 Gyrase SDFQ
Protocol: 100 ng of DNA gyrase was used to supercoil the rx pAB1_FL905 in the presence of different concentrations of a gyrase inhibitor. […] The IC50 values were estimated by nonlinear fitting of the following equation: […]
where F is the fluorescence intensity at the x concentration of an min inhibitor. Fmax and Fmin are the maximum and minimum fluorescence of the DNA sample, respectively. P is a slope parameter.

[3] = biological target: T2, E. coli DNA topoisomerase IV (Escherichia coli (strain K12), UniProt P0AFI2+P20083); test: E. coli DNA topoisomerase IV relaxation assay (gel-based); assay type: biochemical; conditions: for IC50: IC50 Topoisomerase IV Gel-based, Table 8
T2 sequence (P0AFI2 whole entry, looked up): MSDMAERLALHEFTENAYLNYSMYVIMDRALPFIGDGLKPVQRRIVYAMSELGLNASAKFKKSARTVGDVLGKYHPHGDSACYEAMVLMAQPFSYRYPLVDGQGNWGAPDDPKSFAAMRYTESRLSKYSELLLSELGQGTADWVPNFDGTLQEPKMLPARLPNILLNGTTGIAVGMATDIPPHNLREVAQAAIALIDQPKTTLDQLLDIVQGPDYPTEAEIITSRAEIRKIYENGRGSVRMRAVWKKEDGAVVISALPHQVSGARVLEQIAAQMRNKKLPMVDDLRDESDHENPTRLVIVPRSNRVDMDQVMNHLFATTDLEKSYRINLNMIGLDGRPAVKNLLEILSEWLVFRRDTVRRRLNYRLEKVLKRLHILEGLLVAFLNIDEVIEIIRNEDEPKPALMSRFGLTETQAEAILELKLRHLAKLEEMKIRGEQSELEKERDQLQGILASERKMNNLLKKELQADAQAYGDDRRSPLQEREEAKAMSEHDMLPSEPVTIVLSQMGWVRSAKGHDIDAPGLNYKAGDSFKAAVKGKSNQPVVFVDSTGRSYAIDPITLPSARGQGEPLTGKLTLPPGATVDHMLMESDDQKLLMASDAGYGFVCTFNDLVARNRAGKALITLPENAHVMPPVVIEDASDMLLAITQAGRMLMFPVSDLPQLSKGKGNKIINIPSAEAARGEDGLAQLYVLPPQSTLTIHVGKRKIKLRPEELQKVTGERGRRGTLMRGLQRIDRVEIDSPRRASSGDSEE
T2 sequence (P20083 whole entry, looked up): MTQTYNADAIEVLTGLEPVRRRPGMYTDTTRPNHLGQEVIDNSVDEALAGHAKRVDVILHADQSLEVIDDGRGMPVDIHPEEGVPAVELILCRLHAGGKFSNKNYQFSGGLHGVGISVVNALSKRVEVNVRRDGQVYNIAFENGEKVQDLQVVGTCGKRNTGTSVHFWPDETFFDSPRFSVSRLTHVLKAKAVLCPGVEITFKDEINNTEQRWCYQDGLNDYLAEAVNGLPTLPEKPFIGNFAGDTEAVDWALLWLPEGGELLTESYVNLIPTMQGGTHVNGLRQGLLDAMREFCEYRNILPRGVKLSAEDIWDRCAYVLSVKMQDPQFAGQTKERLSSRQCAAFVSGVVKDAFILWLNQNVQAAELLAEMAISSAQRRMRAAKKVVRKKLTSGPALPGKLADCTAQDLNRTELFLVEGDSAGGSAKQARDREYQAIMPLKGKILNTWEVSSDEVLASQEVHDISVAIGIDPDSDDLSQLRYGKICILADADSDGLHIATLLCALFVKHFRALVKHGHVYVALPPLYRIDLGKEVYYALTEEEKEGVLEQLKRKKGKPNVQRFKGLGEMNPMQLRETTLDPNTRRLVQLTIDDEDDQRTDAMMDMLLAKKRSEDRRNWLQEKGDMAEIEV
Protocol: (§1) Relaxation assays by E. coli DNA topoisomerase IV and the ATPase assays were performed. […] Lane 1 is supercoiled plasmid pAB1. […] The supercoiled, fluorescently-labeled plasmid pAB1_FL905 was used.

[4] = biological target: T2, E. coli DNA topoisomerase IV; test: SDFQ-based DNA relaxation assay with E. coli DNA topoisomerase IV; assay type: biochemical
Protocol: as §1

E. coli DNA gyrase [5] = biological target: T1, E. coli DNA gyrase; test: biochemical; assay type: biochemical
E. coli DNA gyrase [6] = biological target: T1, E. coli DNA gyrase; test: E. coli DNA gyrase ATPase assay; assay type: biochemical; conditions: AB-MECA and gallates at 100 µM
Protocol: E. coli DNA gyrase ATPase assays were performed in 60 µL of 1 ×gyrase ATPase buffer (10 mM Tris.HCl (pH 7.5), 0.2 mM EDTA, 1 mM magnesium chloride, 1 mM DTT, and 2% (w/v) glycerol) containing 50 nM E. coli DNA gyrase, 200 ng rx pAB1, 0.8 mM Phosphoenol pyruvate, 1.2 units of Pyruvate kinase, 1.7 units of lactate dehydrogenase, and 0.4 mM of NADH at 37° C. After the reaction mixtures are incubated on ice for 5 minutes, 2 mM of ATP is added to initiate the reaction. Absorbance at OD340nm is monitored for up to 30 minutes at 37° C. in a spectrophotometer.

[7] = biological target: E. coli DNA topoisomerase I (Escherichia coli (strain K12), UniProt P06612); test: E. coli DNA topoisomerase I inhibition; assay type: biochemical; conditions: gallates at 100 µM
Sequence of E. coli DNA topoisomerase I (P06612 whole entry, looked up): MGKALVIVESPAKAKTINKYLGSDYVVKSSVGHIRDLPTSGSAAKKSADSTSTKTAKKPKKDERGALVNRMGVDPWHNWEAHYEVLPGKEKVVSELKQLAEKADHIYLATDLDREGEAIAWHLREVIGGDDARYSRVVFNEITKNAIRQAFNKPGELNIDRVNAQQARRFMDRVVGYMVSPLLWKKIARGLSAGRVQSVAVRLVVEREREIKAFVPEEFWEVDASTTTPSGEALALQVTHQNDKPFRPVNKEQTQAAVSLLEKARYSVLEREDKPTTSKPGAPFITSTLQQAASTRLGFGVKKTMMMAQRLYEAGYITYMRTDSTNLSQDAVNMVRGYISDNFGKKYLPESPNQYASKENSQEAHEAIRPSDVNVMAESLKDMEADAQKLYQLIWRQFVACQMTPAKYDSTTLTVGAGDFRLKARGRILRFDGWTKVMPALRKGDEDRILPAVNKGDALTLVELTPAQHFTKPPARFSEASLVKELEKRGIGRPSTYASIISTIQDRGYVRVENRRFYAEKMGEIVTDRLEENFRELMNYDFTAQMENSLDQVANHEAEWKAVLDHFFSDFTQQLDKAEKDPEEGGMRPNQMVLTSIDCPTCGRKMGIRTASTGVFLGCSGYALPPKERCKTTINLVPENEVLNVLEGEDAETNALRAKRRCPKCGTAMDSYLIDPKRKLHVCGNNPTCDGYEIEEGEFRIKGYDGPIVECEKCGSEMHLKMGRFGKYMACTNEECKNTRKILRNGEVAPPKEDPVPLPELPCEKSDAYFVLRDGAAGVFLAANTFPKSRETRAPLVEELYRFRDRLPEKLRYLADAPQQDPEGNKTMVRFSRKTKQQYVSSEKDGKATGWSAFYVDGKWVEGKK

[8] = biological target: human DNA topoisomerase I (Homo sapiens (Human), UniProt P11387); test: Human DNA topoisomerase I inhibition; assay type: biochemical; conditions: gallates at 100 µM
Sequence of human DNA topoisomerase I (P11387 whole entry): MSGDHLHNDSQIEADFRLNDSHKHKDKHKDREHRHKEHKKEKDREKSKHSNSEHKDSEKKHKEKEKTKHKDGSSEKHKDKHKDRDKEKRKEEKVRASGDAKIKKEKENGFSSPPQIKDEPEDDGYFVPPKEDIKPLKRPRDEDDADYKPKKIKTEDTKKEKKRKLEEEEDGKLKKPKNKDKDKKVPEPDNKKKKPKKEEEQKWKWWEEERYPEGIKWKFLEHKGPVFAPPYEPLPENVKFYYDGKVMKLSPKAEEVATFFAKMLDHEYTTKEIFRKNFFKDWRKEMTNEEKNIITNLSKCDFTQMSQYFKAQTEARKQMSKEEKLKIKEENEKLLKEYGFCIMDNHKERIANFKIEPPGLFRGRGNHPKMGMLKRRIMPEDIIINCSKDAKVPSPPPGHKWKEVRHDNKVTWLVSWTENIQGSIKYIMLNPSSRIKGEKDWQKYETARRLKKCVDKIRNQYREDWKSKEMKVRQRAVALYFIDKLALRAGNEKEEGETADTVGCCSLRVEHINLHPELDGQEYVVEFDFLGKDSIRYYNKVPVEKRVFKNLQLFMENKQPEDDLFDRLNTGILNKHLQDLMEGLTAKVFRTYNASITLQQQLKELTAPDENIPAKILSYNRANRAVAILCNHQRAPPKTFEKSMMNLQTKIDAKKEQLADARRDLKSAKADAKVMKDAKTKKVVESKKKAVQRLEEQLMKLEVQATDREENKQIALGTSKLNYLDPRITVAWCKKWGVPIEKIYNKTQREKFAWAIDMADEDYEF

[9] = biological target: human DNA topoisomerase IIα (Homo sapiens (Human), UniProt P11388); test: Agarose gel-based inhibition assay against human DNA topoisomerase IIα; assay type: biochemical; conditions: gallates at 100 µM
Sequence of human DNA topoisomerase IIα (P11388 whole entry): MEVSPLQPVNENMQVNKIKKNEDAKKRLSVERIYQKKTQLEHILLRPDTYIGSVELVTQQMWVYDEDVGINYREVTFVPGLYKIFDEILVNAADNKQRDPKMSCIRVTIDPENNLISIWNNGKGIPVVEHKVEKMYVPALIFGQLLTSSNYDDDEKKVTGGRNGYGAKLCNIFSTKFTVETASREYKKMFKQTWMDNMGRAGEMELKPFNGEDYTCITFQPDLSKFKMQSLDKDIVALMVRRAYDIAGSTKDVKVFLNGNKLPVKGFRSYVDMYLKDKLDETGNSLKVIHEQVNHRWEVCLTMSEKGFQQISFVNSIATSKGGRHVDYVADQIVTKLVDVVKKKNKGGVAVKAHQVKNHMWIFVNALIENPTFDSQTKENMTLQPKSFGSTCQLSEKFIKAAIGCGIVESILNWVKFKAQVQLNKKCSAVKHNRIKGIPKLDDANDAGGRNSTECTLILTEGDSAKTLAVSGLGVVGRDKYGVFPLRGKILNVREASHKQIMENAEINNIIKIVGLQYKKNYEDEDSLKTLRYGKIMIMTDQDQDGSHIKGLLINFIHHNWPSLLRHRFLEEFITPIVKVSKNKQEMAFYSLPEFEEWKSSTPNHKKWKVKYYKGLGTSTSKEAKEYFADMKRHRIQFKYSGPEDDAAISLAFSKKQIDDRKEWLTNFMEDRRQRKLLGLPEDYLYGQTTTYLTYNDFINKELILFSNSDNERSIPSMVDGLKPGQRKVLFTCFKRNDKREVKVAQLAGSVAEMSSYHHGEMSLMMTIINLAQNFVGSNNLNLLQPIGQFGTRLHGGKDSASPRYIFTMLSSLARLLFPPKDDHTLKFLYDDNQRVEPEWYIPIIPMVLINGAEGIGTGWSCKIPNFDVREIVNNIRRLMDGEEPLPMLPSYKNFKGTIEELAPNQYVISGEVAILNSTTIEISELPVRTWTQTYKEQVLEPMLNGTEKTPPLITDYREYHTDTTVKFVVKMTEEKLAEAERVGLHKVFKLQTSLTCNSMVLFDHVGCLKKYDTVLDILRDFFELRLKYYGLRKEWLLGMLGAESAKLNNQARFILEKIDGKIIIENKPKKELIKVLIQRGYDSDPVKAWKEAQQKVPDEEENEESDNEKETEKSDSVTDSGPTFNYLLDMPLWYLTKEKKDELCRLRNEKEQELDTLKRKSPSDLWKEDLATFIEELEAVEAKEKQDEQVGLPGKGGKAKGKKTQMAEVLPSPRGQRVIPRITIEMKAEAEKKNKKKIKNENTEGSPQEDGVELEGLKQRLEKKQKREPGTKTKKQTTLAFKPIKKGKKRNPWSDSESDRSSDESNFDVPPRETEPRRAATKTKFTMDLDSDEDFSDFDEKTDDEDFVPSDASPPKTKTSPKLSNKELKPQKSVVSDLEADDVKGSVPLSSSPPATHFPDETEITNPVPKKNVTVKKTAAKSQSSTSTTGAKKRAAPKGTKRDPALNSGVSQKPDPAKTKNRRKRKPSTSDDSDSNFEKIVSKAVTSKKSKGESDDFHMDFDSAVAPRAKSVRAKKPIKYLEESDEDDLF

E. coli DNA gyrase [10] = biological target: T1, E. coli DNA gyrase; test: SDFQ HTS primary assay (1536-well, pAB1_FL905); assay type: biochemical; conditions: read-out: inhibition activities against E. coli DNA gyrase
Protocol: SDFQ HTS primary assay using pAB1_FL905 was performed in 2 µL of (1 xDNA gyrase buffer: 20 mM Tris-Acetate pH 7.9, 50 mM KAc, 10 mM MgCl2, 2 mM DTT, 1 mM ATP, 0.1 mg/mL BSA). […] 3) Spun plate at 800 rpm for 30 seconds.

E. coli DNA gyrase [11] = biological target: T1, E. coli DNA gyrase; test: DNA gyrase mediated DNA cleavage assay; assay type: biochemical; conditions: pBR322
Protocol: 250 ng of supercoiled pBR322 plasmid were incubated with 50 nM of E. coli DNA gyrase in reactions containing 35 mM Tris-HCl, 24 mM KCl, 4 mM MgCl2, 2 mM DTT, 0.1 mg/mL BSA, 6.5% glycerol, and 1.75 mM ATP, in presence of 200 µM of compounds, at 37° C. for 15 min. Then, 0.2% (w/v) of SDS and 0.1 mg/mL proteinase K were added, and samples were incubated at 37° C. for 1 h. […] Samples were examined by electrophoresis in 1% w/v agarose gel containing 0.5 µg/mL ethidium bromide and photographed under UV light.

[12] = ATCC25922, read-out: MIC (µM) Ec, E. coli strain ATCC25922
[13] = ATCC14775, read-out: MIC (µM) Sa
[14] = ATCC25922, read-out: MIC E coli ATCC 25922, Table 9
[15] = ATCC14775, read-out: MIC S. aureus ATCC 14775
[16] = ATCC33591 / MRSA, read-out: MIC MRSA ATCC 33591
[17] = ATCCBAA44 / MRSA, read-out: MIC S. aureus (MRSA) ATCC BAA44
[18] = read-out: IC50 against E. coli DNA gyrase

Row | SMILES | IC50 (Mtb DNA gyrase) [µM] | MIC (Mtb) [µM] | MIC (M. abscessus) [µM] | IC50 (in vitro) [µM] | MIC (S. aureus (ATCC 14775); [13]) [µM] | MIC (E. coli imp) [µM] | MIC (E. coli (ATCC 25922); [14]) [µM] | MIC (S. aureus (ATCC 14775); [15]) | MIC (MRSA; [16]) [µM] | MIC (B. subtilis (ATCC 6633)) | IC50 (E. coli DNA gyrase [1]) [µM] | IC50 (E. coli DNA gyrase [2]) [µM] | inhibition of E. coli DNA topoisomerase IV [3] | IC50 [3] [µM] | IC50 [4] [µM] | other results
1 | C[n+]1c(-c2ccc(/C=N/NC(=O)c3cccc(C(=O)N/N=C/c4ccc(-c5cn6ccccc6[n+]5C)cc4)c3)cc2)cn2ccccc21 [Compound 259] | 2.6 | > 200 | > 200 | > 200 | 200 |  |  |  |  |  |  |  |  |  |  | MIC (E. coli (ATCC 25922); [12]): > 200 µM
2 | CO[C@@H]1[C@@H](OC(N)=O)[C@@H](O)[C@H](Oc2ccc3c(O)c(NC(=O)c4ccc(O)c(CC=C(C)C)c4)c(=O)oc3c2C)OC1(C)C [Novobiocin, novobiocin, reference compound] |  |  |  |  |  | 6.25 (≈ 3.83 µg/mL) | 158 | < 6.25 µM | < 6.25 | < 625 µM |  |  |  |  |  | 
3 | CCCCCCCCOC(=O)c1cc(O)c(O)c(O)c1 [Octyl gallate, octyl gallate] |  |  |  |  |  | 50 (≈ 14.1 µg/mL) | > 200 | 56.5 µg/mL and 200 µM | 100 | 4 µg/mL and 12.5 µM to 25 µM | 50 | 26 | strongly inhibit | 50 | 41.2 | MIC (E. coli (ATCC 25922); ATCC25922, read-out: MIC E. coli ATCC 25922, Table 7): 226 µg/mL; MIC (MRSA; [17]): 56.5 µg/mL
4 | CCCCSc1ccn2cc(-c3ccc(/C=N/NC(=O)c4ccc(C(=O)N/N=C/c5ccc(-c6cn7ccc(SCCCC)cc7[n+]6C)cc5)cc4)cc3)[n+](C)c2c1 [Compound 262] | 118 | 122 | > 200 | > 200 | > 200 |  |  |  |  |  |  |  |  |  |  | MIC (E. coli (ATCC 25922); [12]): > 200 µM
5 | CNC(=O)[C@H]1O[C@@H](n2cnc3c(NCc4ccc(N)cc4)ncnc32)[C@H](O)[C@@H]1O [AB-MECA, reference compound] |  |  |  |  |  |  |  |  |  |  |  |  | did not inhibit |  |  | inhibition of E. coli DNA gyrase activities (E. coli DNA gyrase [5]): does not inhibit; inhibition of the ATPase activities of E. coli DNA gyrase (E. coli DNA gyrase [6]): did not inhibit; inhibition of Mtb DNA gyrase activities (Mtb DNA gyrase): did not inhibit; inhibition of E. coli DNA topoisomerase I [7]: did not inhibit; inhibition of human DNA topoisomerase I [8]: did not inhibit; inhibition of human DNA topoisomerase IIα [9]: did not inhibit
6 | CCCCCCCCCCCCOC(=O)c1cc(O)c(O)c(O)c1 [Dodecyl gallate, dodecyl gallate] |  |  |  |  |  | 200 (≈ 67.7 µg/mL) | > 200 | 67.7 µg/mL and 200 µM | 200 | 8 µg/mL and 25 µM to 50 µM | 15 | 13.8 | strongly inhibit | 50 | 36.9 | 
7 | CC1COc2c(N3CCN(C)CC3)c(F)cc3c(=O)c(C(=O)O)cn1c23 (stereo not drawn) [ofloxacin] |  |  |  |  |  |  |  |  |  |  |  |  |  |  |  | inhibition at 5 µM (E. coli DNA gyrase [10]): > 40%
8 | CNC(=O)[C@H]1O[C@@H](n2cnc3c(NCc4cccc(I)c4)nc(Cl)nc32)[C@H](O)[C@@H]1O [chloro-IB-MECA, reference compound] |  |  |  |  |  |  |  |  |  |  |  |  | did not inhibit |  |  | IC50 (E. coli DNA gyrase [5]; IC50 against E. coli DNA gyrase): 2.4 µM; IC50 (E. coli DNA gyrase [5]; [18]): < 5 µM; inhibition of the ATPase activities of E. coli DNA gyrase (E. coli DNA gyrase [6]): ATP competitive inhibitors; also recorded: inhibition; inhibition of Mtb DNA gyrase activities (Mtb DNA gyrase): did not inhibit; inhibition of E. coli DNA topoisomerase I [7]: did not inhibit; inhibition of human DNA topoisomerase I [8]: did not inhibit; inhibition of human DNA topoisomerase IIα [9]: did not inhibit; E. coli DNA gyrase-mediated DNA breaks and nicking (E. coli DNA gyrase [11]): did not DNA double stranded DNA breaks
9 | C[n+]1c(-c2ccc(/C=N/NC(=O)c3cncc(C(=O)N/N=C/c4ccc(-c5cn6ccccc6[n+]5C)cc4)c3)cc2)cn2ccccc21 [Compound 260] | 92 | > 200 | > 200 | > 200 | > 200 |  |  |  |  |  |  |  |  |  |  | MIC (E. coli (ATCC 25922); [12]): > 200 µM
10 | O=C(Oc1ccccc1)c1cc(O)c(O)c(O)c1 [Phenyl gallate, phenyl gallate] |  |  |  |  |  | > 200 | > 200 | 64 µg/mL and 200 µM | 200 | > 64 µg/mL and > 200 µM | > 100 | > 100 |  | > 100 | > 100 | MIC (MRSA; [17]): 64 µg/mL
11 | C[n+]1c(-c2ccc(/C=N/NC(=O)c3ccc(C(=O)N/N=C/c4ccc(-c5cn6ccccc6[n+]5C)cc4)nc3)cc2)cn2ccccc21 [Compound 264] | 2.1 | 6.2 | 13.5 | > 200 | 100 |  |  |  |  |  |  |  |  |  |  | 
12 | CCCCOC(=O)c1cc(O)c(O)c(O)c1 [Butyl gallate, butyl gallate] |  |  |  |  |  | > 200 | > 200 | > 200 µM | > 200 | > 64 µg/mL and > 200 µM | > 100 | > 100 |  | > 100 | > 100 | 
13 | CNC(=O)[C@H]1O[C@@H](n2cnc3c(NCc4cccc(I)c4)ncnc32)[C@H](O)[C@@H]1O [IB-MECA, reference compound] |  |  |  |  |  |  |  |  |  |  |  |  | did not inhibit |  |  | IC50 (E. coli DNA gyrase [5]; [18]): 50.7 µM; inhibition of the ATPase activities of E. coli DNA gyrase (E. coli DNA gyrase [6]): ATP competitive inhibitors; also recorded: inhibition; inhibition of Mtb DNA gyrase activities (Mtb DNA gyrase): did not inhibit; inhibition of E. coli DNA topoisomerase I [7]: did not inhibit; inhibition of human DNA topoisomerase I [8]: did not inhibit; inhibition of human DNA topoisomerase IIα [9]: did not inhibit
